Results published in ChEMBL document CHEMBL1201862, “PubChem BioAssay data set” (2004).
The source made the active and inactive calls.

Tests used:
[1] = molecular target: DNA dC->dU-editing enzyme APOBEC-3A (Homo sapiens, UniProt P31941); assay: SAR analysis of small molecule inhibitors of APOBEC3A DNA Deaminase via a fluorescence-based single-stranded DNA deaminase assay.; type: functional; settings: read-out: IC50_Mean
[2] = molecular target: DNA dC->dU-editing enzyme APOBEC-3G (Homo sapiens, UniProt Q9HC16); assay: inhibition of APOBEC3G ssDNA deamination – biochemical, fluorescence, single-stranded DNA substrate, SAR follow-up (AID 602136); type: functional; settings: read-out: IC50_Mean
Misshapen-like kinase 1 = Misshapen-like kinase 1 (Homo sapiens, UniProt Q8N4C8); type: functional;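 further: kinome panel screen with MINK as the panel member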
[3] = molecular target: Mitogen-activated protein kinase kinase kinase kinase 4 (Homo sapiens, UniProt O95819); type: functional
[4] = molecular target: Protein kinase C delta type (Homo sapiens, UniProt Q05655); type: functional
[5] = molecular target: T1, Neuropeptides B/W receptor type 1 (Homo sapiens, UniProt P48145); assay: human NPBW1 receptor blockade, IC50 – cell-based, fluorescence, dose response, set 6, late-stage follow-up (AID 588583); type: functional
[6] = molecular target: T2, Melanin-concentrating hormone receptor 1 (Homo sapiens, UniProt Q99705); assay: Late-stage fluorescence-based counterscreen for antagonists of the G-protein coupled receptor 7 (GPR7): cell-based dose response assay to identify antagonists of the melanin-concentrating hormone receptor 1 (MCHR1) Set 6.; type: functional
[7] = molecular target: T1, Neuropeptides B/W receptor type 1; assay: human NPBW1 receptor blockade, IC50 – cell-based, fluorescence, dose response, set 5, late-stage follow-up (AID 588566); type: functional
[8] = molecular target: T2, Melanin-concentrating hormone receptor 1; assay: Late-stage fluorescence-based counterscreen for antagonists of the G-protein coupled receptor 7 (GPR7): cell-based dose response assay to identify antagonists of the melanin-concentrating hormone receptor 1 (MCHR1) Set 5.; type: functional
[9] = molecular target: cAMP-dependent protein kinase catalytic subunit alpha (Homo sapiens, UniProt P17612); type: functional
[10] = molecular target: Glycogen synthase kinase-3 beta (Homo sapiens, UniProt P49841); type: functional;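 further: value comes from a broad kinome profiling panel, with GSK3B as the panel member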
[11] = molecular target: Cyclin-dependent kinase 2 (Homo sapiens, UniProt P24941); type: functional;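 further: CDK2 measured as one member of a broad kinome profiling panel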
[12] = molecular target: Serine/threonine-protein kinase pim-1 (Homo sapiens, UniProt P11309); type: functional
[13] = molecular target: Dual specificity protein kinase CLK4 (Homo sapiens, UniProt Q9HAZ1); type: functional
[14] = molecular target: Interleukin-1 receptor-associated kinase 4 (Homo sapiens, UniProt Q9NWZ3); type: functional
[15] = molecular target: Cell division cycle 7-related protein kinase (Homo sapiens, UniProt O00311); type: functional;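 further: value obtained from a kinome-wide kinase panel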
[16] = molecular target: Homeodomain-interacting protein kinase 2 (Homo sapiens, UniProt Q9H2X6); type: functional;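 further: measured within a kinome-wide kinase profiling panel, HIPK2 being one panel member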
[17] = A Cell Based Secondary Assay to Explore Cytotoxicity in THP-1 Cells of Compounds that Modulate Mycobacterium tuberculosis in Media Containing Glycerol versus Media without Glycerol (2).; type: functional
[18] = Vero cell cytotoxicity, cytotoxicity control for M. tuberculosis inhibitor project, purified and synthesized samples, set 3 (AID 504684); type: functional
[19] = A Cell Based Secondary Assay to Explore Cytotoxicity in HepG2 Cells of Compounds that Modulate Mycobacterium tuberculosis in Media Containing Glycerol versus Media without Glycerol (2).; type: functional
[20] = microbe, parasite or virus in culture; type: functional; settings: Mycobacterium tuberculosis
[21] = CCR5-tropic HIV-1 fusion blockers – cell-based, CCR5-tropic Env, dose response (AID 2279); type: functional
[22] = cAMP pathway inhibition in counterscreen cell line – TR-FRET cAMP detection, counter-screen for MC4R biased antagonist project, dose response (AID 602305); type: functional, cell-based;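 further: U2OS cells stimulated with forskolin near its EC80 as the cAMP inducer; potency is for inhibition of forskolin-stimulated cAMP signaling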
[23] = HEK-293T cell viability reduction – luminescence, B-cell screen hits, cytotoxicity control for BCR NF-kB inhibitor project, dose response (AID 489021); type: functional, cell-based;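 further: HEK-293T cells carrying an NF-kB luciferase reporter; cells exposed to compound for about 14 hours before viability readout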
Melanocortin receptor 4 = Melanocortin receptor 4 (Homo sapiens, UniProt P32245); assay: inhibitors of MC4R cAMP signaling – cell-based, TR-FRET, biased antagonists, dose response (AID 602298); type: functional;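 further: antagonist potency against agonist-stimulated cAMP production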
[24] = molecular target: Benomyl/methotrexate resistance protein (Candida albicans, UniProt P28873); assay: Candida albicans Mdr1 pump blockade titration – singleplex, Cherry Pick2 set, dose response (AID 623992); type: functional; settings: read-out: EC50_MICROM
Focal adhesion kinase 1 = Focal adhesion kinase 1 (Homo sapiens, UniProt Q05397); type: functional;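 further: measured as one member of a kinome panel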
[25] = molecular target: Tyrosine-protein kinase SYK (Homo sapiens, UniProt P43405); type: functional
[26] = molecular target: Tyrosine-protein kinase ABL1 (Homo sapiens, UniProt P00519); type: functional
[27] = molecular target: Insulin-like growth factor 1 receptor (Homo sapiens, UniProt P08069); assay: Navigating the Kinome. Panel member name: IGF1R; type: functional
[28] = molecular target: Hepatocyte growth factor receptor (Homo sapiens, UniProt P08581); type: functional;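 further: kinase panel profiling across the kinome, with MET as the panel member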
[29] = molecular target: Fibroblast growth factor receptor 3 (Homo sapiens, UniProt P22607); type: functional
[30] = molecular target: Leucine-rich repeat serine/threonine-protein kinase 2 (Homo sapiens, UniProt Q5S007); type: functional;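 further: value from a broad kinome-wide panel profiling study in which LRRK2 was one of the kinases tested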
[31] = molecular target: T3, Sentrin-specific protease 8 (Homo sapiens, UniProt Q96LD8); assay: inhibition of human SENP8 cleavage activity – biochemical, luminescence, SAR follow-up (AID 504501); type: functional
T3 sequence (Q96LD8 whole entry): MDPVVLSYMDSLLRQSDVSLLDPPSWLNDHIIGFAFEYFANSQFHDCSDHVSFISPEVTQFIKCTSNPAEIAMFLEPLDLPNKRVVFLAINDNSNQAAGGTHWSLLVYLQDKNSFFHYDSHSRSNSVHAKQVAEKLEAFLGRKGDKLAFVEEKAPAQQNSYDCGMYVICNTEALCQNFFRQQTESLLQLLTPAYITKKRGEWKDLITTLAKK

[32] = molecular target: T4, Sentrin-specific protease 7 (Homo sapiens, UniProt Q9BQF6); assay: inhibition of human SENP7 cleavage activity – biochemical, luminescence, SAR follow-up (AID 504497); type: functional
T4 sequence (Q9BQF6 whole entry): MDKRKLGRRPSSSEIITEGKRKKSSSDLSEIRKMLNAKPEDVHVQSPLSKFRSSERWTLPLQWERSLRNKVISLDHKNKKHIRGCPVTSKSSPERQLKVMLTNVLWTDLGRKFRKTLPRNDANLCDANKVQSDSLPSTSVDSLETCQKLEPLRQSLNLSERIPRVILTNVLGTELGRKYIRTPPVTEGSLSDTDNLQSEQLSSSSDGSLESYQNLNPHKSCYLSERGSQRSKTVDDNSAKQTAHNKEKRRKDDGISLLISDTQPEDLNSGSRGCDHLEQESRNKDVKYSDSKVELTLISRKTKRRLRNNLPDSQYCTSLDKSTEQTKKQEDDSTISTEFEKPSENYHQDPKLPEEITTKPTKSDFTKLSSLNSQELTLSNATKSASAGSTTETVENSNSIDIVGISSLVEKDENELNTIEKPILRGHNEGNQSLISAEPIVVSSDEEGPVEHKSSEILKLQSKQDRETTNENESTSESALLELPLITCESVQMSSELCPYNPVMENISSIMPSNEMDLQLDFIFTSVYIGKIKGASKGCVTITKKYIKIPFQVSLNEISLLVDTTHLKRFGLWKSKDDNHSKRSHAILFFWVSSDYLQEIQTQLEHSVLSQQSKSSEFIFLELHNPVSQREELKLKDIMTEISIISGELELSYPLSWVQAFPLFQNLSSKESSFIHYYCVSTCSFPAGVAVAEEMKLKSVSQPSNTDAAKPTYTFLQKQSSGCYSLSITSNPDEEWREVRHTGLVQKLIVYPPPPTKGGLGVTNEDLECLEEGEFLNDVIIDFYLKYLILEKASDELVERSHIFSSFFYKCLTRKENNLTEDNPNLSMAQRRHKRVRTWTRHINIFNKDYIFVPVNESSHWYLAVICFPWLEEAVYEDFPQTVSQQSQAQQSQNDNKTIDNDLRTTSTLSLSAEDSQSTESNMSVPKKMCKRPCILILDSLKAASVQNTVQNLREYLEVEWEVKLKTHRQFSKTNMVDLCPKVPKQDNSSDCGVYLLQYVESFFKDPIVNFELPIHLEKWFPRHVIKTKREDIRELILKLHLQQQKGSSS

Caspase-3 = molecular target: T5, Caspase-3 (Homo sapiens, UniProt P42574); assay: SAR Analysis of small molecule inhibitors of Sentrin-specific proteases (SENPs) using a Caspase-3 Selectivity assay. [Related pubchem assays (depositor defined):AID2540, AID2599, AID434973, AID489001]; type: functional
T5 sequence (P42574 whole entry): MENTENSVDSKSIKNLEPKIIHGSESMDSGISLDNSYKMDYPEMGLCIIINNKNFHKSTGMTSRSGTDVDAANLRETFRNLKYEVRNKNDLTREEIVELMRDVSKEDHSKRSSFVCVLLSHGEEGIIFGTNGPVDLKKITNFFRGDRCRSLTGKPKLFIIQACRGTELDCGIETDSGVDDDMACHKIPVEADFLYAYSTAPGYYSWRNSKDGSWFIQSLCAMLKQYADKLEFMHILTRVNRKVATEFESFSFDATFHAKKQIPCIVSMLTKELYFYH

[33] = molecular target: T6, Sentrin-specific protease 6 (Homo sapiens, UniProt Q9GZR1); assay: SAR Analysis of small molecule inhibitors of Sentrin-specific protease 6 (SENP6) using a Luminescent assay. [Related pubchem assays (depositor defined):AID2582, AID2599]; type: functional
T6 sequence (Q9GZR1 whole entry): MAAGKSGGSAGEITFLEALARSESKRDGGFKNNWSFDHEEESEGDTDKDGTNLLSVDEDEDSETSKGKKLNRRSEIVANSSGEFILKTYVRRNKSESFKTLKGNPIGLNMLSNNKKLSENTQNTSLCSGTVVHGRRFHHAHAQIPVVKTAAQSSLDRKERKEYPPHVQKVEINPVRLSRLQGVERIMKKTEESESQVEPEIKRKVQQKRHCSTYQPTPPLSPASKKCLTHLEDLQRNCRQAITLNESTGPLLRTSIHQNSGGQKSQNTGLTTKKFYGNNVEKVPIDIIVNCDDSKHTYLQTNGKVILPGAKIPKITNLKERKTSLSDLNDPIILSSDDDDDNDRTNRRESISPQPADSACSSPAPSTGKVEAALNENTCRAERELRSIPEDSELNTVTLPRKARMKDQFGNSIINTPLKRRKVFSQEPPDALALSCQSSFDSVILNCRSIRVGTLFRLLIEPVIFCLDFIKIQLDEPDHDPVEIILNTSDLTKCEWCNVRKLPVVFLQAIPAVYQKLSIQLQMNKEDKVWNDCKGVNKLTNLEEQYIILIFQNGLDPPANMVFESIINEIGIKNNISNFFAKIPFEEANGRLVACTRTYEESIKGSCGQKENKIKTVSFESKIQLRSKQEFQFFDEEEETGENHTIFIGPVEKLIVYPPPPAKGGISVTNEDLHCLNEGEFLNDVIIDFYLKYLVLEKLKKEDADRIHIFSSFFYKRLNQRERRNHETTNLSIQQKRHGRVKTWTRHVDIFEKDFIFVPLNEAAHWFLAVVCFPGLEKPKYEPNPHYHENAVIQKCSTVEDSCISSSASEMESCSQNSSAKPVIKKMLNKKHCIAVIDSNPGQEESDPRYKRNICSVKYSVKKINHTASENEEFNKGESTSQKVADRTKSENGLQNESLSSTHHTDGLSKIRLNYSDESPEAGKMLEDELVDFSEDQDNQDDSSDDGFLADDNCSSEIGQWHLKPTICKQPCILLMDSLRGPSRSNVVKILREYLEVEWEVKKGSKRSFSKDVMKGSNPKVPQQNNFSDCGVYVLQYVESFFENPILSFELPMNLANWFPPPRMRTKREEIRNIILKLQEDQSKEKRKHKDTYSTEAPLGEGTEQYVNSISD

T2 sequence (Q99705 whole entry): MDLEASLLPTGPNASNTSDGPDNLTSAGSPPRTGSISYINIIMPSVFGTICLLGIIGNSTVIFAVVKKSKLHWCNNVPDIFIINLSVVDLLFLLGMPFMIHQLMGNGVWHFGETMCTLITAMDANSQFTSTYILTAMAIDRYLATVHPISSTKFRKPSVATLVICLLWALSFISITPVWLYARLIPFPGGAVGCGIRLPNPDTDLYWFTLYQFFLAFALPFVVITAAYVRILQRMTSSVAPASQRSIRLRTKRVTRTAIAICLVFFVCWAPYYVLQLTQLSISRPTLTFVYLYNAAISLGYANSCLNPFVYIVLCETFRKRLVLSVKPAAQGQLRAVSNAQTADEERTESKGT
T1 sequence (P48145 whole entry): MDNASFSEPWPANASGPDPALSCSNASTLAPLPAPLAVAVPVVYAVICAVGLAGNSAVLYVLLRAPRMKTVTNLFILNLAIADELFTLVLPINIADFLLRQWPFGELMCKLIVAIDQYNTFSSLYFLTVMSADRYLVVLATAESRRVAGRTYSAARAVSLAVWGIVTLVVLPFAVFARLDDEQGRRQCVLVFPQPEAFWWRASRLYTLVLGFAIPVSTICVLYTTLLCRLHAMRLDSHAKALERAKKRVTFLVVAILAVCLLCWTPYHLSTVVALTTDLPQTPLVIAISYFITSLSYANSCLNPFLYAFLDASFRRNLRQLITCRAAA
Chain of Mitogen-activated protein kinase kinase kinase kinase 4 (O95819 whole entry): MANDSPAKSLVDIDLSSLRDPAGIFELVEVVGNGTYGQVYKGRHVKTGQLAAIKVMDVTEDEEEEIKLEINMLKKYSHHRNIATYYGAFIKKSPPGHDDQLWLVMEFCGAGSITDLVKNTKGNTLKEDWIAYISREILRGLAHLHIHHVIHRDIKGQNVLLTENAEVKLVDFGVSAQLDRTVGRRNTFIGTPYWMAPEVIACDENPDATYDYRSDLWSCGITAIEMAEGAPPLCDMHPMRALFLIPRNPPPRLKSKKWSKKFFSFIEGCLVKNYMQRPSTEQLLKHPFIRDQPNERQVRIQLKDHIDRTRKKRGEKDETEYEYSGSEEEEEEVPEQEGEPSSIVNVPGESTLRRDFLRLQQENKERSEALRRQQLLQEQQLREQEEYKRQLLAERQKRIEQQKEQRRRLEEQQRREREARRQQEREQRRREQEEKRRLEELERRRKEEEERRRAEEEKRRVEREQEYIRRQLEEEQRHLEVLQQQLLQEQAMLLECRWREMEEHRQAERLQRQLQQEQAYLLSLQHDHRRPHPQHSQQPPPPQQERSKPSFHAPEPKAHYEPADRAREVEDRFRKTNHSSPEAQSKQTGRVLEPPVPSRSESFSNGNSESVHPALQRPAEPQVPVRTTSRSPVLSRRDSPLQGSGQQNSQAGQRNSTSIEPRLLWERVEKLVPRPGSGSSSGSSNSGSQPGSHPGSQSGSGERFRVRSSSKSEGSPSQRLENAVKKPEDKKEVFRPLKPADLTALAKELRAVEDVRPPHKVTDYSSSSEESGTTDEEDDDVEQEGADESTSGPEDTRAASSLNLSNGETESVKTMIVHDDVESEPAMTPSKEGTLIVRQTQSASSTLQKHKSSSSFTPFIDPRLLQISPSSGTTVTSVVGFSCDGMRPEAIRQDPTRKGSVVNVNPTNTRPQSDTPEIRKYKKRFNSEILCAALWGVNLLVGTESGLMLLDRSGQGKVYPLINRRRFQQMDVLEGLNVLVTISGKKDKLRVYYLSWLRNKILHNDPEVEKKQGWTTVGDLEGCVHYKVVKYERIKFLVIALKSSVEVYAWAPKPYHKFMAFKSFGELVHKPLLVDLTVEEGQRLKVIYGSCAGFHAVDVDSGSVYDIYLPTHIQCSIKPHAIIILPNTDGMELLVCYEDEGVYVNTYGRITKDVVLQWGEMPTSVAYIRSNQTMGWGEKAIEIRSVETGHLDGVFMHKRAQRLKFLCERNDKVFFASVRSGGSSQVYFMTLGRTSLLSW
Chain of Melanocortin receptor 4 (P32245 whole entry): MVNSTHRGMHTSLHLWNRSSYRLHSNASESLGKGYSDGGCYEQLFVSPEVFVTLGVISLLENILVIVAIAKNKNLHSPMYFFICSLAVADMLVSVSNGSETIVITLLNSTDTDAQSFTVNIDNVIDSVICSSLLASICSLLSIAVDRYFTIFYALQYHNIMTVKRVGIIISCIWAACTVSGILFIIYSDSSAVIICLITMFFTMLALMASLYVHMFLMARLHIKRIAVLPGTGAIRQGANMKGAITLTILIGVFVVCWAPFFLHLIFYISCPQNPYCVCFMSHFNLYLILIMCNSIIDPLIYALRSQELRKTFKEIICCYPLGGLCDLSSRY
Chain of Insulin-like growth factor 1 receptor (P08069 31-736 limits assumed): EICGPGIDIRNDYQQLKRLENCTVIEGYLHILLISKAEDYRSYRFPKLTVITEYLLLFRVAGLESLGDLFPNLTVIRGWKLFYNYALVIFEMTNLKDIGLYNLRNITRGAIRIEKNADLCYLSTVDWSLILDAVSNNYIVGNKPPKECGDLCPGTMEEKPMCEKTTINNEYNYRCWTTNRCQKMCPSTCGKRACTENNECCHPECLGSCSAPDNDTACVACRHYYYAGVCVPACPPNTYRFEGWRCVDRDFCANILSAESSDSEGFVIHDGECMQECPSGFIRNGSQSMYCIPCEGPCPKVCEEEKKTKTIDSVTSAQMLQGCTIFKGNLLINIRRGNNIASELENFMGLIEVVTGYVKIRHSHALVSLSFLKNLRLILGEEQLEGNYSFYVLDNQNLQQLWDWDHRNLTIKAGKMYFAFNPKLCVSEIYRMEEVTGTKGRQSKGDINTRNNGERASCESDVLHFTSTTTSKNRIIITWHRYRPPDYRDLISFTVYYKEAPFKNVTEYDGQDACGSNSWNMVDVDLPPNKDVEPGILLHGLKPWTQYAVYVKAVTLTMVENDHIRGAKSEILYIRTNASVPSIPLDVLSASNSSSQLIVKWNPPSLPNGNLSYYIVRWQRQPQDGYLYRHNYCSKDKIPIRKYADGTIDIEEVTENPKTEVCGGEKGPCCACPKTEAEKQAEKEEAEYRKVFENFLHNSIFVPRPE
Chain of Insulin-like growth factor 1 receptor (P08069 741-1367 limits assumed): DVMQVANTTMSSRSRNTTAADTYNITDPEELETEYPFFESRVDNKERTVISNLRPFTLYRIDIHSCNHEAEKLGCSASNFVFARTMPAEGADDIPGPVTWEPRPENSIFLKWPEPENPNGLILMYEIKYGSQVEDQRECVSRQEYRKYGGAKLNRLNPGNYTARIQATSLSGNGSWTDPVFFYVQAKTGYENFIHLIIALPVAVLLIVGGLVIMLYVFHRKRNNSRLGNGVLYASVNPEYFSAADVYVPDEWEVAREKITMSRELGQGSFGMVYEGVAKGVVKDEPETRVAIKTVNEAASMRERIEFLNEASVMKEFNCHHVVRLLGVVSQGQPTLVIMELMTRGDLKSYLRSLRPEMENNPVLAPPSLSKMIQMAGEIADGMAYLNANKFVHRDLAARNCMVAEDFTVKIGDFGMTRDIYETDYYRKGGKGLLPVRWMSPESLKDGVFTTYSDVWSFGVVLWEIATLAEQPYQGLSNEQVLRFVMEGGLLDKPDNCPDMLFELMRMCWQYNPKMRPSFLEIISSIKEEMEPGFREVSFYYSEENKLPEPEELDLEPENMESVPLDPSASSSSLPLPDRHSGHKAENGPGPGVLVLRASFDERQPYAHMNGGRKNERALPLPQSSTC
Chain of Protein kinase C delta type (Q05655 whole entry): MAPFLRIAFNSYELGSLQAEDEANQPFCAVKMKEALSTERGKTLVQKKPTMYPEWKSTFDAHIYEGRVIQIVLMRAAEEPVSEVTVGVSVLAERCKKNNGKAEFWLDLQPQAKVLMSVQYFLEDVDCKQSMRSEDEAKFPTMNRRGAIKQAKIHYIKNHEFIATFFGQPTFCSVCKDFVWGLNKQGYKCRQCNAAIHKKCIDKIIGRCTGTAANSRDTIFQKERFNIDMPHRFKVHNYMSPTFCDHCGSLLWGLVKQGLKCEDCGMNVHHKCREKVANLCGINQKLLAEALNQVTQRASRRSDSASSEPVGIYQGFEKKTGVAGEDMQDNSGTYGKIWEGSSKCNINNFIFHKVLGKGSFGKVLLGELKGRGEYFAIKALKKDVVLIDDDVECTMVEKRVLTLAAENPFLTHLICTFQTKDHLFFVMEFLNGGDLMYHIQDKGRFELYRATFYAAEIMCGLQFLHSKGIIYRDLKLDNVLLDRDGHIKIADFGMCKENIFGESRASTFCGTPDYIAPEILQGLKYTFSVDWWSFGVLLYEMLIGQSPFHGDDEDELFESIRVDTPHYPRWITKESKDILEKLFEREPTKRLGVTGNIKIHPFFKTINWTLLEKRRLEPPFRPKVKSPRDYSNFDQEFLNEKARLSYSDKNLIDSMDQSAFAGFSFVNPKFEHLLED
Chain of Interleukin-1 receptor-associated kinase 4 (Q9NWZ3 whole entry): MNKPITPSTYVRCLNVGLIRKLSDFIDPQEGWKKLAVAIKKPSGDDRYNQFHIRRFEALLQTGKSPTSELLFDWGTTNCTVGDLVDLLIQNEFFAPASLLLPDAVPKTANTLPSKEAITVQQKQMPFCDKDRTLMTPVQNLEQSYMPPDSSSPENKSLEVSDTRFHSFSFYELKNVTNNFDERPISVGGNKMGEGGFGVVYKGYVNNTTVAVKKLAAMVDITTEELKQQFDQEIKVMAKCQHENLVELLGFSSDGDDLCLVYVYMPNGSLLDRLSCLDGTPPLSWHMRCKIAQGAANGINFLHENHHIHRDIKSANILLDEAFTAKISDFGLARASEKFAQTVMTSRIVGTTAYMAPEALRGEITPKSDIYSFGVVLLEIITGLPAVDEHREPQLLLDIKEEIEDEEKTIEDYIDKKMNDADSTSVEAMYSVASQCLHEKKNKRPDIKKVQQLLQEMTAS
Chain of DNA dC->dU-editing enzyme APOBEC-3A (P31941 whole entry): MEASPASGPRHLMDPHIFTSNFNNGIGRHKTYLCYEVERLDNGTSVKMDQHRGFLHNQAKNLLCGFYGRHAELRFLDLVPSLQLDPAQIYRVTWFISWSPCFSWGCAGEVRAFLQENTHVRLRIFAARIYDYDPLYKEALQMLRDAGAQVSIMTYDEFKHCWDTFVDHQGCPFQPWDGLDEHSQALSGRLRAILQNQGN

Cc1ccc(NC(=O)CCSc2nnc3scc(-c4ccccc4)n23)cc1
IC50 [1]: > 99 µM (inactive)
IC50 [2]: > 99 µM (inactive)

CC(C)Oc1ccc(-c2noc(-c3ccc(OCC(O)CO)cc3)n2)cc1Cl (stereo not drawn)
Ki (Misshapen-like kinase 1): 6.31 µM (active)
Ki [3]: 2 µM (active)
Ki [4]: 7.94 µM (active)

N#CC(c1c(F)cccc1F)c1c(Cl)cnn(Cc2cccc3ccccc23)c1=O (stereo not drawn)
IC50 [5]: 1.61 µM (active)
IC50 [6]: 1.61 µM (active)

COc1c(F)cc(Oc2c(Cl)cnn(Cc3cccc4ccccc34)c2=O)cc1F
IC50 [7]: 2.2 µM (active)
IC50 [8]: 7.43 µM (active)

O=c1cc(-c2ccc(F)cc2)[nH]c2c(-c3ccc(F)cc3)cnn12
Ki [9]: > 7.94 µM (inactive)
Ki [10]: 0.501 µM (active)
Ki [11]: > 7.94 µM (inactive)
Ki [12]: 0.0501 µM (active)
Ki [13]: 0.158 µM (active)
Ki [14]: > 10 µM (inactive)
Ki [15]: 0.0501 µM (active)
Ki [3]: > 10 µM (inactive)
Ki [16]: 0.2 µM (active)

CC(C)NC(=O)c1sc(=S)n2c1[nH]c(=O)c1ccc(C(=O)NCCc3ccc(Cl)cc3)cc12
CC50 [17]: > 100 µM (active)
CC50 [18]: > 100 µM (active)
CC50 [19]: > 50 µM (active)
CC50 [20]: > 40 µM (active)
IC50 [21]: 41.5 µM (active)

O=C1NC[C@H](c2ccccc2)OC(=O)[C@@H](Cc2ccc(F)cc2)C/C=C\C[C@H]1CC(=O)N(CCO)Cc1ccccc1
IC50 [22]: > 64.6 µM (inactive)
IC50 [23]: 30.3 µM (inactive)
IC50 (Melanocortin receptor 4): > 64.6 µM (inactive)

O=C(c1ccc2c(c1)OCO2)N1CCC2(CC1)Oc1ccc(F)cc1C(=O)C21CC(c2ccccc2)=NO1 (stereo not drawn)
EC50 [24]: 9.25 µM (active)

c1ccc(CNc2nc(Nc3cc(C4CC4)[nH]n3)c3sccc3n2)cc1
Ki (Focal adhesion kinase 1): 0.00501 µM (active)
Ki [25]: 0.0126 µM (active)
Ki [26]: 0.01 µM (active)
Ki [27]: 0.0794 µM (active)
Ki [28]: 0.794 µM (active)
Ki [29]: 0.00316 µM (active)
Ki [30]: 0.01 µM (active)

Clc1ccc(N/N=C/c2c[nH]c3ccccc23)cc1
IC50 [31]: > 99 µM (inactive)
IC50 [32]: 57 µM (active)
IC50 (Caspase-3): > 99 µM (inactive)
IC50 [33]: > 99 µM (inactive)
